In US10703757B2, “Compounds and methods for CDK8 modulation and indications therefor” (Plexxikon Inc., priority 2016, dated 2020):

How the values were obtained:
[1] = system: CDK8 (phosphorylation of STAT1 at serine 727 in A549 cells); test: Cell based Phospho-STAT1 assay (IFNγ-stimulated A549 cells, AlphaLISA); conditions: Homo sapiens, A549, A549 cells, phospho-STAT1 after IFNγ stimulation
Summary of the method: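 A549 cells given serial compound dilutions for 1 h at 37 °C, then stimulated with IFNγ at 10 ng/mL final for 30 min. Lysate STAT1 Ser727 phosphorylation measured by AlphaLISA; % inhibition vs stimulated/unstimulated DMSO controls, IC50 by nonlinear regression.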

[2] = system: CDK8 (TCF/LEF luciferase reporter in HCT116 cells); test: Cell based TCF/LEF reporter assay (HCT116+TCF/LEF luciferase); conditions: Homo sapiens, HCT-116, 24 h
Summary of the method: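 HCT116 cells stably carrying a TCF/LEF-luciferase reporter (endogenous mutant β-catenin), seeded overnight, then exposed to serial compound dilutions for 24 h at 37 °C. Luminescence normalized to CellTiter-Fluor viability signal. % inhibition relative to DMSO and 10 uM CCT251545 controls, with IC50 from nonlinear regression.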

SMILES	IC50 [1] [nM]	IC50 [2] [nM]
Cc1cc(-c2ccc(-c3cnn4cccc(C#CC(C)(C)O)c34)cc2)n[nH]1 [Compound P-0234, 2-methyl-4-(3-(4-(5-methyl-1H-pyrazol-3-yl)phenyl)pyrazolo[1,5-a]pyridin-4-yl)but-3-yl-2-ol]	100 to 1000	0.1 to 100
N#CC1CC=C(c2nccn3ncc(-c4ccc(OCc5ccccc5)c(F)c4)c23)CC1 (stereo not shown) [Compound P-0039, 4-(3-(4-(benzyloxy)-3-fluorophenyl)pyrazolo[1,5-a]pyrazin-4-yl)cyclohex-3-ene-1-carbonitrile]	100 to 1000	100 to 1000
N#CC1CCN(c2cccn3ncc(-c4ccc(S(=O)(=O)N5CCOCC5)cc4)c23)CC1 [Compound P-0255, 1-(3-(4-(morpholino-sulfonyl)phenyl)pyrazolo[1,5-a]pyridin-4-yl)piperidine-4-carbonitrile]	1000 to 10000	1000 to 10000
Cc1cncc(-c2ccc(-c3cnn4cccc(C#CC(C)(C)O)c34)cc2)c1 [Compound P-0231, 2-methyl-4-(3-(4-(5-methylpyridin-3-yl)phenyl)pyrazolo[1,5-a]pyridin-4-yl)but-3-yn-2-ol]	100 to 1000	100 to 1000
Cc1nc2cc(-c3cnn4ccnc(C5=CCC(C#N)CC5)c34)ccc2s1 (stereo not shown) [Compound P-0148, 4-(3-(2-methylbenzo[d]thiazol-5-yl)pyrazolo[1,5-a]pyrazin-4-yl)cyclohex-3-ene-1-carbonitrile]	100 to 1000	0.1 to 100
Cc1ccc2cc(-c3cnn4ccnc(C5CCC(C#N)CC5)c34)ccc2n1 (stereo not shown) [Compound P-0187, 4-(3-(2-methylquinolin-6-yl)pyrazolo[1,5-a]pyrazin-4-yl)cyclohexane-1-carbonitrile]	0.1 to 100	0.1 to 100
CCCS(=O)(=O)Nc1ccc2cc(-c3cnn4cccc(C#CC(C)(C)C(N)=O)c34)ccc2c1 [Compound P-0065, 2,2-dimethyl-4-(3-(6-(propylsulfonamido)naphthalen-2-yl)pyrazolo[1,5-a]pyridin-4-yl)but-2-ynamide]	0.1 to 100	100 to 1000
N#CC1CC=C(c2c(-c3ccc(OCCOC4CCOCC4)cc3)cnc3[nH]ccc23)CC1 (stereo not shown) [Compound P-0172, 4-(5-(4-(2-((tetrahydro-2H-pyran-4-yl)oxy)ethoxy)phenyl)-1H-pyrrolo[2,3-b]pyridin-4-yl)cyclohex-3-ene-1-carbonitrile]	0.1 to 100	0.1 to 100
COc1ccc2cc(-c3cnn4ccnc(C#CC(C)(C)C(N)=O)c34)ccc2n1 [Compound P-0117, 4-[3-(2-methoxy-6-quinolyl)pyrazolo[1,5-a]pyrazin-4-yl]-2,2-dimethyl-but-3-ynamide]	0.1 to 100	0.1 to 100
Cc1cc(-c2cnn3ccnc(C4=CCC(C#N)CC4)c23)ccc1C#N (stereo not shown) [Compound P-0097, 4-(4-(4-cyanocyclohex-1-en-1-yl)pyrazolo[1,5-a]pyrazin-3-yl)-2-methylbenzonitrile]	0.1 to 100	100 to 1000
CC(C)(O)C#Cc1cccn2ncc(-c3ccc(-c4cnoc4)cc3)c12 [Compound P-0228, 4-(3-(4-(isoxazol-4-yl)phenyl)pyrazolo[1,5-a]pyridin-4-yl)-2-methylbut-3-yn-2-ol]	1000 to 10000	1000 to 10000
CC(C)(O)C#Cc1cccn2ncc(-c3ccc(-c4cccnc4)cc3)c12 [Compound P-0237, 2-methyl-4-(3-(4-(pyridin-3-yl)phenyl)pyrazolo[1,5-a]pyridin-4-yl)but-3-yn-2-ol]	0.1 to 100	0.1 to 100
N#CC1(c2ccccc2)CCN(c2cccc3ncc(-c4ccc(-c5cnn(C(F)F)c5)cc4)n23)CC1 [Compound P-0322, 1-(3-(4-(1-(difluoromethyl)-1H-pyrazol-4-yl)phenyl)imidazo[1,2-a]pyridin-5-yl)-4-phenylpiperidine-4-carbonitrile]	100 to 1000	100 to 1000
N#CC1CC=C(c2nccn3ncc(-c4ccc(-c5cnn(C(F)F)c5)cc4)c23)CC1 (stereo not shown) [Compound P-0012, 4-(3-(4-(1-(difluoromethyl)-1H-pyrazol-4-yl)phenyl)pyrazolo[1,5-a]pyrazin-4-yl)cyclohex-3-ene-1-carbonitrile]	0.1 to 100	0.1 to 100
Cc1nc2ccc(-c3cnn4ccnc(C5=CCC(C#N)CC5)c34)cc2s1 (stereo not shown) [Compound P-0149, 4-(3-(2-methylbenzo[d]thiazol-6-yl)pyrazolo[1,5-a]pyrazin-4-yl)cyclohex-3-ene-1-carbonitrile]	0.1 to 100	0.1 to 100
COc1ccc(-c2cnn3ccnc(C4=CCC(C#N)CC4)c23)cc1 (stereo not shown) [Compound P-0088, 4-(3-(4-methoxyphenyl)pyrazolo[1,5-a]pyrazin-4-yl)cyclohex-3-ene-1-carbonitrile]	0.1 to 100	0.1 to 100
CC(C)(O)Cn1cc(-c2ccc(-c3cnn4ccnc(C#CC(C)(C)C(N)=O)c34)cc2)cn1 [Compound P-0110, 4-(3-(4-(1-(2-hydroxy-2-methylpropyl)-1H-pyrazol-4-yl)phenyl)pyrazolo[1,5-a]pyrazin-4-yl)-2,2-dimethylbut-3-ynamide]	0.1 to 100	0.1 to 100
N#CC1CCN(c2cccn3ncc(-c4ccc(OCCCN5CCCCC5)cc4)c23)CC1 [Compound P-0260, 1-(3-(4-(3-(piperidin-1-yl)propoxy)phenyl)pyrazolo[1,5-a]pyridin-4-yl)piperidine-4-carbonitrile]	100 to 1000	100 to 1000

The remaining lines, values ahead:

IC50 [1] [nM]	IC50 [2] [nM]	SMILES
0.1 to 100	0.1 to 100	O=C1NCCC12CCN(c1cccn3ncc(-c4ccc(OCCOC5CCOCC5)cc4)c13)CC2 [Compound P-0145, 8-(3-(4-(2-((tetrahydro-2H-pyran-4-yl)oxy)ethoxy)phenyl)pyrazolo[1,5-a]pyridin-4-yl)-2,8-diazaspiro[4.5]decan-1-one]
0.1 to 100	0.1 to 100	N#CC1CC=C(c2c(-c3ccc(-n4cccn4)cc3)cnc3[nH]ccc23)CC1 (stereo not shown) [Compound P-0203, 4-(5-(4-(1H-pyrazol-1-yl)phenyl)-1H-pyrrolo[2,3-b]pyridin-4-yl)cyclohex-3-ene-1-carbonitrile]
0.1 to 100	0.1 to 100	N#CCn1cc(-c2ccc(-c3cnn4ccnc(C5CCC(C#N)CC5)c34)cc2)cn1 (stereo not shown) [Compound P-0014, (1s,4s)-4-(3-(4-(1-(cyanomethyl)-1H-pyrazol-4-yl)phenyl)pyrazolo[1,5-a]pyrazin-4-yl)cyclohexane-1-carbonitrile]
0.1 to 100	100 to 1000	NC(=O)C1CC=C(c2cccn3ncc(-c4ccc(-n5ccnn5)cc4)c23)CC1 (stereo not shown) [Compound P-0196, 4-(3-(4-(1H-1,2,3-triazol-1-yl)phenyl)pyrazolo[1,5-a]pyridin-4-yl)cyclohex-3-ene-1-carboxamide]
0.1 to 100	0.1 to 100	Cc1ccc2cc(-c3cnn4cccc(C5CCC(C#N)CC5)c34)ccc2n1 (stereo not shown) [Compound P-0194, 4-(3-(2-methylquinolin-6-yl)pyrazolo[1,5-a]pyridin-4-yl)cyclohexane-1-carbonitrile]
0.1 to 100	0.1 to 100	N#CCCCn1cc(-c2ccc(-c3cnn4ccnc(C5=CCC(C#N)CC5)c34)cc2)cn1 (stereo not shown) [Compound P-0009, 4-(3-(4-(1-(3-cyanopropyl)-1H-pyrazol-4-yl)phenyl)pyrazolo[1,5-a]pyrazin-4-yl)cyclohex-3-ene-1-carbonitrile]
0.1 to 100	0.1 to 100	N#CC1CCC(c2cccn3ncc(-c4ccc(F)cc4)c23)CC1 (stereo not shown) [Compound P-0139, 4-(3-(4-fluorophenyl)pyrazolo[1,5-a]pyridin-4-yl)cyclohexane-1-carbonitrile]
0.1 to 100	100 to 1000	CC(C)(O)C#Cc1cccn2ncc(-c3ccc4cc(NS(C)(=O)=O)ccc4c3)c12 [Compound P-0216, N-(6-(4-(3-hydroxy-3-methylbut-1-yn-1-yl)pyrazolo[1,5-a]pyridin-3-yl)naphthalen-2-yl)methanesulfonamide]
0.1 to 100	100 to 1000	N#CC1CC=C(c2cccn3ncc(-c4ccc5cncnc5c4)c23)CC1 (stereo not shown) [Compound P-0119, 4-(3-(quinazolin-7-yl)pyrazolo[1,5-a]pyridin-4-yl)cyclohex-3-ene-1-carbonitrile]
0.1 to 100	0.1 to 100	N#CC1CC=C(c2nccn3ncc(-c4ccc(-c5cnn(CC6(C#N)CC6)c5)cc4)c23)CC1 (stereo not shown) [Compound P-0096, 4-(3-(4-(1-((1-cyanocyclopropyl)methyl)-1H-pyrazol-4-yl)phenyl)pyrazolo[1,5-a]pyrazin-4-yl)cyclohex-3-ene-1-carbonitrile]
0.1 to 100	0.1 to 100	N#CC1CCC(c2nccn3ncc(-c4ccc(-c5cnn(CC(N)=O)c5)cc4)c23)CC1 (stereo not shown) [Compound P-0013, 2-(4-(4-(4-((1s,4s)-4-cyanoclohexyl)pyrazolo[1,5-a]pyrazin-3-yl)phenyl)-1H-pyrazol-1-yl)acetamide]
0.1 to 100	0.1 to 100	N#CCCn1cc(-c2ccc(-c3cnn4ccnc(C5CCC(C#N)CC5)c34)cc2F)cn1 (stereo not shown) [Compound P-0019, (1s,4s)-4-(3-(4-(1-(2-cyanoethyl)-1H-pyrazol-4-yl)-3-fluorophenyl)pyrazolo[1,5-a]pyrazin-4-yl)cyclohexane-1-carbonitrile]
0.1 to 100	100 to 1000	CC(C)(O)C#Cc1cccn2ncc(-c3ccc4nccn4c3)c12 [Compound P-0286, 4-(3-(imidazo[1,2-a]pyridin-6-yl)pyrazolo[1,5-a]pyridin-4-yl)-2-methylbut-3-yn-2-ol]
0.1 to 100	0.1 to 100	CC(C)(C#N)Cn1cc(-c2ccc(-c3cnn4ccnc(C5CCC(C#N)CC5)c34)cc2)cn1 (stereo not shown) [Compound P-0046, (1s,4s)-4-(3-(4-(1-(2-cyano-2-methylpropyl)-1H-pyrazol-4-yl)phenyl)pyrazolo[1,5-a]pyrazin-4-yl)cyclohexane-1-carbonitrile]
